pIC50: −log10 of the molar value.
biological target: T1, Human Factor XIIa (hFXIIa) (Homo sapiens, UniProt P00748); assay: Determination of Human Factor XIIa (hFXIIa) inhibition, fluorogenic substrate IC50 assay; type: biochemical; details: fluorogenic substrate H-DPro-Phe-Arg-AFC at Km, 25° C., read-out: Human FXIIa IC50
T1 construct: purchased Enzyme Research Laboratories
T1 sequence (P00748 373-615 limits assumed): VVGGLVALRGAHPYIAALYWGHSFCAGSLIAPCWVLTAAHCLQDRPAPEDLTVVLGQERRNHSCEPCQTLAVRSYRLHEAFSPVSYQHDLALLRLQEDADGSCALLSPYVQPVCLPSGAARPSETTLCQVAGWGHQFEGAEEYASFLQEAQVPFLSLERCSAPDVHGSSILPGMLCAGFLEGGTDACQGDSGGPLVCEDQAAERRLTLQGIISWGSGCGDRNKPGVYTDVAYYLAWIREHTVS
T1 sequence (P00748 20-372 partner limits assumed): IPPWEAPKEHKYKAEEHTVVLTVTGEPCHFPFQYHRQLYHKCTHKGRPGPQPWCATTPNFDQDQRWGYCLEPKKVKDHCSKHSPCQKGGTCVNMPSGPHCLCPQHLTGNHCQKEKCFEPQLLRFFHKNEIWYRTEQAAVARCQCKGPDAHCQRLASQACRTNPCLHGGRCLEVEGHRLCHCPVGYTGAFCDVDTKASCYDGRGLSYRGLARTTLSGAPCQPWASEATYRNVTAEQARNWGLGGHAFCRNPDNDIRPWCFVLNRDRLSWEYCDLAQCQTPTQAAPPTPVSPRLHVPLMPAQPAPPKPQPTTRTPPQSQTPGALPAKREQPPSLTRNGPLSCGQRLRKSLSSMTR
Experimental: Determination of Human Factor XIIa (hFXIIa) inhibition
The Km for the cleavage of the substrate by hFXIIa was determined by standard transformation of the Michaelis-Menten equation, with subsequent inhibition assays performed at substrate Km concentration.

Row | SMILES | pIC50
1 | O=C(NCc1cnccc1Cl)c1nn(-c2cccc(Cl)c2)c2c1CCN(c1cccc(CN3CCCCC3)c1)C2=O [Example 1174, 1-(3-chlorophenyl)-N-((4-chloropyridin-3-yl)methyl)-7-oxo-6-(3-(piperidin-1-ylmethyl)phenyl)-4,5,6,7-tetrahydro-1H-pyrazolo[3,4-c]pyridine-3-carboxamide] | 6.52 to 7.00
2 | O=C(NCC1CC1)c1nn(-c2cccc(Cl)c2)c2c1CCN(c1ccc3c(c1)CN(CCF)CC3)C2=O [Example 1175, 1-(3-chlorophenyl)-N-(cyclopropylmethyl)-6-(2-(2-fluoroethyl)-1,2,3,4-tetrahydroisoquinolin-7-yl)-7-oxo-4,5,6,7-tetrahydro-1H-pyrazolo[3,4-c]pyridine-3-carboxamide] | 6.52 to 7.00
3 | Cc1cn(C)nc1CNC(=O)c1nn(-c2cccc(Cl)c2)c2c1CCN(c1cccc(CN3CCCCC3)c1)C2=O [Example 1178, 1-(3-chlorophenyl)-N-((1,4-dimethyl-1H-pyrazol-3-yl)methyl)-7-oxo-6-(3-(piperidin-1-ylmethyl)phenyl)-4,5,6,7-tetrahydro-1H-pyrazolo[3,4-c]pyridine-3-carboxamide] | 6.52 to 7.00
4 | CN1CCc2ccc(N3CCc4c(C(=O)O)nn(-c5cccc(Cl)c5)c4C3=O)cc2C1=O [Example 1182, 1-(3-chlorophenyl)-6-(2-methyl-1-oxo-1,2,3,4-tetrahydroisoquinolin-7-yl)-7-oxo-4,5,6,7-tetrahydro-1H-pyrazolo[3,4-c]pyridine-3-carboxylic acid] | 5.00 to 5.52
5 | CN1CCc2ccc(N3CCc4c(CO)nn(-c5cccc(Cl)c5)c4C3=O)cc2C1=O [Example 1183, 7-(1-(3-chlorophenyl)-3-(hydroxymethyl)-7-oxo-1,4,5,7-tetrahydro-6H-pyrazolo[3,4-c]pyridin-6-yl)-2-methyl-3,4-dihydroisoquinolin-1(2H)-one] | 5.52 to 6.00
6 | COCc1nn(-c2cccc(Cl)c2)c2c1CCN(c1ccc3c(c1)C(=O)N(C)CC3)C2=O [Example 1184, 7-(1-(3-chlorophenyl)-3-(methoxymethyl)-7-oxo-1,4,5,7-tetrahydro-6H-pyrazolo[3,4-c]pyridin-6-yl)-2-methyl-3,4-dihydroisoquinolin-1(2H)-one] | 5.52 to 6.00
7 | CN1CCc2cc(N3CCc4c(C(=O)NCC5CC5)nn(-c5cccc(Cl)c5)c4C3=O)ccc2C1=O [Example 1190, 1-(3-chlorophenyl)-N-(cyclopropylmethyl)-6-(2-methyl-1-oxo-1,2,3,4-tetrahydroisoquinolin-6-yl)-7-oxo-4,5,6,7-tetrahydro-1H-pyrazolo[3,4-c]pyridine-3-carboxamide] | 4.40 to 5.00
8 | COC1CN(CCO)Cc2cc(N3CCc4c(C(=O)NCC5CC5)nn(-c5cccc(Cl)c5)c4C3=O)ccc21 (stereo not shown) [Example 1191, 1-(3-chlorophenyl)-N-(cyclopropylmethyl)-6-(2-(2-hydroxyethyl)-4-methoxy-1,2,3,4-tetrahydroisoquinolin-7-yl)-7-oxo-4,5,6,7-tetrahydro-1H-pyrazolo[3,4-c]pyridine-3-carboxamide] | 6.00 to 6.52
9 | CN1Cc2ccc(N3CCc4c(C(=O)NCC5CC5)nn(-c5cccc(Cl)c5)c4C3=O)cc2C1=O [Example 1192, 1-(3-chlorophenyl)-N-(cyclopropylmethyl)-6-(2-methyl-3-oxoisoindolin-5-yl)-7-oxo-4,5,6,7-tetrahydro-1H-pyrazolo[3,4-c]pyridine-3-carboxamide] | 5.00 to 5.52
10 | CCOC(=O)c1nn(-c2cccc(Cl)c2)c2c1CCN(c1cccc(C(=O)N(C)C)c1)C2=O [Example 1196, ethyl 1-(3-chlorophenyl)-6-(3-(dimethylcarbamoyl)phenyl)-7-oxo-4,5,6,7-tetrahydro-1H-pyrazolo[3,4-c]pyridine-3-carboxylate] | 5.00 to 5.52
11 | C[C@@H](NC(=O)c1nn(-c2cccc(Cl)c2)c2c1CCN(c1ccc3c(c1)C(=O)N(C)CC3)C2=O)c1cccnc1 [Example 1214, (R)-1-(3-chlorophenyl)-6-(2-methyl-1-oxo-1,2,3,4-tetrahydroisoquinolin-7-yl)-7-oxo-N-(1-(pyridin-3-yl)ethyl)-4,5,6,7-tetrahydro-1H-pyrazolo[3,4-c]pyridine-3-carboxamide] | 6.00 to 6.52
12 | C[C@H](NC(=O)c1nn(-c2cccc(Cl)c2)c2c1CCN(c1ccc3c(c1)C(=O)N(C)CC3)C2=O)c1cccnc1 [Example 1215, (S)-1-(3-chlorophenyl)-6-(2-methyl-1-oxo-1,2,3,4-tetrahydroisoquinolin-7-yl)-7-oxo-N-(1-(pyridin-3-yl)ethyl)-4,5,6,7-tetrahydro-1H-pyrazolo[3,4-c]pyridine-3-carboxamide] | 6.52 to 7.00
13 | CCN1CCc2ccc(N3CCc4c(C(=O)NCc5cc(C)n(C)n5)nn(-c5cccc(Cl)c5)c4C3=O)cc2C1=O [Example 1219, 1-(3-chlorophenyl)-N-((1,5-dimethyl-1H-pyrazol-3-yl)methyl)-6-(2-ethyl-1-oxo-1,2,3,4-tetrahydroisoquinolin-7-yl)-7-oxo-4,5,6,7-tetrahydro-1H-pyrazolo[3,4-c]pyridine-3-carboxamide] | 7.00 to 8.00
14 | COc1cccnc1CNC(=O)c1nn(-c2cccc(Cl)c2)c2c1CCN(c1cc3c(cn1)CCN(CCO)C3)C2=O [Example 1221, 1-(3-chlorophenyl)-6-(6-(2-hydroxyethyl)-5,6,7,8-tetrahydro-2,6-naphthyridin-3-yl)-N-((3-methoxypyridin-2-yl)methyl)-7-oxo-4,5,6,7-tetrahydro-1H-pyrazolo[3,4-c]pyridine-3-carboxamide] | 7.00 to 8.00
15 | Cc1ccncc1CNC(=O)c1nn(-c2cccc(Cl)c2)c2c1CCN(c1ccc3c(c1)C(=O)NCC3)C2=O [Example 1240, 1-(3-chlorophenyl)-N-((4-methylpyridin-3-yl)methyl)-7-oxo-6-(1-oxo-1,2,3,4-tetrahydroisoquinolin-7-yl)-4,5,6,7-tetrahydro-1H-pyrazolo[3,4-c]pyridine-3-carboxamide] | 6.00 to 6.52
16 | Cc1cc(CNC(=O)c2nn(-c3cccc(Cl)c3)c3c2CCN(c2ccc4c(c2)N(C)C(=O)CCC4)C3=O)nn1C [Example 1241, 1-(3-chlorophenyl)-N-((1,5-dimethyl-1H-pyrazol-3-yl)methyl)-6-(1-methyl-2-oxo-2,3,4,5-tetrahydro-1H-benzo[b]azepin-8-yl)-7-oxo-4,5,6,7-tetrahydro-1H-pyrazolo[3,4-c]pyridine-3-carboxamide] | 5.52 to 6.00
17 | CN1C(=O)CCCc2ccc(N3CCc4c(C(=O)NCC5CC5)nn(-c5cccc(Cl)c5)c4C3=O)cc21 [Example 1242, 1-(3-chlorophenyl)-N-(cyclopropylmethyl)-6-(1-methyl-2-oxo-2,3,4,5-tetrahydro-1H-benzo[b]azepin-8-yl)-7-oxo-4,5,6,7-tetrahydro-1H-pyrazolo[3,4-c]pyridine-3-carboxamide] | 5.00 to 5.52
18 | O=C(NCC1CC1)c1nn(-c2cccc(Cl)c2)c2c1CCN(c1cccc(CN3CCC(F)C3)c1)C2=O (stereo not shown) [Example 1243, 1-(3-chlorophenyl)-N-(cyclopropylmethyl)-6-(3-((3-fluoropyrrolidin-1-yl)methyl)phenyl)-7-oxo-4,5,6,7-tetrahydro-1H-pyrazolo[3,4-c]pyridine-3-carboxamide] | 5.52 to 6.00
19 | Cc1ccc(N2CCc3c(C(=O)NCC4CC4)nn(-c4cccc(Cl)c4)c3C2=O)cc1C(=O)N(C)C [Example 1244, 1-(3-chlorophenyl)-N-(cyclopropylmethyl)-6-(3-(dimethylcarbamoyl)-4-methylphenyl)-7-oxo-4,5,6,7-tetrahydro-1H-pyrazolo[3,4-c]pyridine-3-carboxamide] | 5.00 to 5.52
